From PubChem BioAssay AID248 (DTP/NCI, 2004)
Where “and” joins values, the source holds several entries; their conditions need not be identical. Equal entries are not always repeated. Inconclusive results and toxic doses are left out. No stated cut-off is given here; in the data, active means T/C of 150% or more; inactive means T/C below 125%.

Tested on: L1210 leukemia ip in BDF1 mice, survival T/C
Assay: NCI In Vivo Anticancer Drug Screen. Data for tumor model L1210 Leukemia (intraperitoneal) in B6D2F1 (BDF1) mice
Settings: endpoint: mean survival time, higher = longer survival
How it was run: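 Each compound was tested against a transplantable tumor grown in mice. The endpoint was survival, with treated animals benchmarked against vehicle controls as a simple ratio.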

[1] = dose: 100.0 mg/kg/injection, schedule: Q01DX009 (ip), vehicle: saline with Tween-80
[2] = dose: 200.0 mg/kg/injection, schedule: Q01DX009 (ip), vehicle: saline with Tween-80
[3] = dose: 100.0 mg/kg/injection, schedule: Q01DX001 (ip), vehicle: Klucel (hydroxypropylcellulose) (HPC)
[4] = dose: 50.0 mg/kg/injection, schedule: Q01DX009 (ip), vehicle: gum acacia
[5] = dose: 75.0 mg/kg/injection, schedule: Q01DX001 (ip), vehicle: saline
[6] = dose: 100.0 mg/kg/injection, schedule: Q04DX003 (ip), vehicle: saline with Tween-80

Measured: T/C

O=C(/C(=N\O)c1ccc(Cl)cc1)c1ccc(Cl)cc1
inactive: dose: 50.0 mg/kg/injection, schedule: Q01DX009 (ip), vehicle: saline with Tween-80 100 % of control | [1] 89 % of control | [2] 92 % of control

O=C(OCc1ccccc1CN1CCCC1)c1ccccc1
inactive: dose: 25.0 mg/kg/injection, schedule: Q01DX001 (ip), vehicle: Klucel (hydroxypropylcellulose) (HPC) 98 % of control | dose: 50.0 mg/kg/injection, schedule: Q01DX001 (ip), vehicle: Klucel (hydroxypropylcellulose) (HPC) 95 % of control | [3] 98 % of control and 102 % of control

COC(=O)C(NC(=O)COc1ccccc1[N+](=O)[O-])C(=O)OC
inactive: dose: 100.0 mg/kg/injection, schedule: Q01DX001 (ip), vehicle: saline with Tween-80 100 % of control | dose: 200.0 mg/kg/injection, schedule: Q01DX001 (ip), vehicle: saline with Tween-80 95 % of control | dose: 400.0 mg/kg/injection, schedule: Q01DX001 (ip), vehicle: saline with Tween-80 97 % of control

COc1ccccc1-n1c(O)c(N=Nc2ccc(C)cc2)c(=O)n(-c2ccccc2)c1=S
inactive: [3] 103 % of control | dose: 200.0 mg/kg/injection, schedule: Q01DX001 (ip), vehicle: Klucel (hydroxypropylcellulose) (HPC) 97 % of control | dose: 400.0 mg/kg/injection, schedule: Q01DX001 (ip), vehicle: Klucel (hydroxypropylcellulose) (HPC) 91 % of control

CS(=O)(=O)N(CC(=O)O)Cc1cccnc1
inactive: dose: 100.0 mg/kg/injection, schedule: Q01DX009 (ip), vehicle: other 101 % of control | dose: 100.0 mg/kg/injection, schedule: Q04DX003 (ip), vehicle: other 106 % of control | dose: 200.0 mg/kg/injection, schedule: Q01DX009 (ip), vehicle: other 101 % of control | dose: 200.0 mg/kg/injection, schedule: Q04DX003 (ip), vehicle: other 93 % of control | dose: 400.0 mg/kg/injection, schedule: Q01DX009 (ip), vehicle: other 105 % of control | dose: 400.0 mg/kg/injection, schedule: Q04DX003 (ip), vehicle: other 95 % of control

O=C(Nc1cccc(F)c1)N(C1CCCCC1)C1CCCCC1
inactive: dose: 6.25 mg/kg/injection, schedule: Q01DX009 (ip), vehicle: gum acacia 96 % of control | dose: 12.5 mg/kg/injection, schedule: Q01DX009 (ip), vehicle: gum acacia 100 % of control | [4] 89 % of control | dose: 400.0 mg/kg/injection, schedule: Q01DX009 (ip), vehicle: gum acacia 91 % of control

CSC(SC)=C(C#N)C#N
inactive: dose: 25.0 mg/kg/injection, schedule: Q04DX002 (ip), vehicle: saline 101 % of control

CSc1ncnc2c1nnn2C1OC(COC(=O)c2ccccc2)C(OC(=O)c2ccccc2)C1OC(=O)c1ccccc1 (centres undefined)
inactive: [4] 93 % of control | dose: 100.0 mg/kg/injection, schedule: Q01DX001 (ip), vehicle: gum acacia 92 % of control | dose: 100.0 mg/kg/injection, schedule: Q01DX009 (ip), vehicle: gum acacia 89 % of control | dose: 200.0 mg/kg/injection, schedule: Q01DX001 (ip), vehicle: gum acacia 87 % of control

OCCN1CCN(CC/C=C2\c3ccccc3Sc3ccc(Cl)cc32)CC1
inactive: dose: 0.39 mg/kg/injection, schedule: Q03HX024 (ip), vehicle: saline 100 % of control | dose: 0.78 mg/kg/injection, schedule: Q03HX024 (ip), vehicle: saline 94 % of control | dose: 1.0 mg/kg/injection, schedule: Q01DX009 (ip), vehicle: saline 101 % of control and 87 % of control | dose: 1.56 mg/kg/injection, schedule: Q03HX024 (ip), vehicle: saline 107 % of control | dose: 2.0 mg/kg/injection, schedule: Q01DX009 (ip), vehicle: saline 95 % of control and 103 % of control | dose: 3.12 mg/kg/injection, schedule: Q01DX009 (ip), vehicle: saline 104 % of control | dose: 3.12 mg/kg/injection, schedule: Q03HX024 (ip), vehicle: saline 111 % of control | dose: 3.12 mg/kg/injection, schedule: Q04DX003 (ip), vehicle: saline 106 % of control | dose: 4.0 mg/kg/injection, schedule: Q01DX009 (ip), vehicle: saline 100 % of control and 106 % of control | dose: 6.25 mg/kg/injection, schedule: Q01DX009 (ip), vehicle: saline 120 % of control | dose: 6.25 mg/kg/injection, schedule: Q04DX003 (ip), vehicle: saline 100 % of control and 105 % of control | dose: 8.0 mg/kg/injection, schedule: Q01DX009 (ip), vehicle: saline 106 % of control and 115 % of control | dose: 9.37 mg/kg/injection, schedule: Q01DX001 (ip), vehicle: saline 106 % of control | dose: 12.5 mg/kg/injection, schedule: Q01DX009 (ip), vehicle: saline 120 % of control and 86 % of control | dose: 12.5 mg/kg/injection, schedule: Q04DX003 (ip), vehicle: saline 108 % of control and 116 % of control | dose: 16.0 mg/kg/injection, schedule: Q01DX009 (ip), vehicle: saline 115 % of control and 89 % of control | dose: 18.75 mg/kg/injection, schedule: Q01DX001 (ip), vehicle: saline 100 % of control | dose: 20.0 mg/kg/injection, schedule: Q04DX003 (ip), vehicle: saline 115 % of control | dose: 25.0 mg/kg/injection, schedule: Q01DX009 (ip), vehicle: saline 124 % of control | dose: 25.0 mg/kg/injection, schedule: Q04DX003 (ip), vehicle: saline 119 % of control | dose: 37.5 mg/kg/injection, schedule: Q01DX001 (ip), vehicle: saline 105 % of control | dose: 40.0 mg/kg/injection, schedule: Q04DX003 (ip), vehicle: saline 105 % of control | [5] 105 % of control

CCC(=O)OC1(c2ccccc2)CCN(CCC(O)c2ccco2)CC1 (centres undefined)
inactive: dose: 40.0 mg/kg/injection, schedule: Q01DX009 (ip), vehicle: Klucel (hydroxypropylcellulose) (HPC) 97 % of control | dose: 80.0 mg/kg/injection, schedule: Q01DX009 (ip), vehicle: Klucel (hydroxypropylcellulose) (HPC) 98 % of control | dose: 160.0 mg/kg/injection, schedule: Q01DX009 (ip), vehicle: Klucel (hydroxypropylcellulose) (HPC) 98 % of control

CCCCOCC1CO1 (centres undefined)
inactive: [6] 92 % of control | dose: 200.0 mg/kg/injection, schedule: Q04DX003 (ip), vehicle: saline with Tween-80 95 % of control | dose: 400.0 mg/kg/injection, schedule: Q04DX003 (ip), vehicle: saline with Tween-80 98 % of control

Cc1c(CC(=O)O)c(=O)n(-c2ccccc2)n1C
inactive: dose: 75.0 mg/kg/injection, schedule: Q04DX003 (ip), vehicle: Klucel (hydroxypropylcellulose) (HPC) 105 % of control | dose: 150.0 mg/kg/injection, schedule: Q04DX003 (ip), vehicle: Klucel (hydroxypropylcellulose) (HPC) 101 % of control | dose: 300.0 mg/kg/injection, schedule: Q04DX003 (ip), vehicle: Klucel (hydroxypropylcellulose) (HPC) 104 % of control

O=Nc1c(O)ccc2ncccc12
inactive: dose: 75.0 mg/kg/injection, schedule: Q01DX001 (ip), vehicle: other 104 % of control | dose: 150.0 mg/kg/injection, schedule: Q01DX001 (ip), vehicle: other 104 % of control

NC(=S)N/N=C\c1nccc2ccsc12
inactive: dose: 100.0 mg/kg/injection, schedule: Q04DX002 (ip), vehicle: saline with Tween-80 113 % of control | dose: 200.0 mg/kg/injection, schedule: Q04DX002 (ip), vehicle: saline with Tween-80 92 % of control | dose: 400.0 mg/kg/injection, schedule: Q04DX002 (ip), vehicle: saline with Tween-80 103 % of control

CSC(Cl)=C(Cl)Cl
inactive: dose: 25.0 mg/kg/injection, schedule: Q04DX003 (ip), vehicle: saline with Tween-80 101 % of control | dose: 50.0 mg/kg/injection, schedule: Q04DX003 (ip), vehicle: saline with Tween-80 101 % of control | dose: 100.0 mg/kg/injection, schedule: Q01DX001 (ip), vehicle: saline 90 % of control | [6] 97 % of control

CC1(C)CC(=O)CC(C)(C)N1
inactive: dose: 100.0 mg/kg/injection, schedule: Q04DX003 (ip), vehicle: saline 107 % of control | dose: 200.0 mg/kg/injection, schedule: Q04DX003 (ip), vehicle: saline 100 % of control

CCC(COC(=O)c1ccc([N+](=O)[O-])cc1)NCCC1CCCCC1 (centres undefined)
inactive: [5] 101 % of control | dose: 150.0 mg/kg/injection, schedule: Q01DX001 (ip), vehicle: saline 104 % of control | dose: 300.0 mg/kg/injection, schedule: Q01DX001 (ip), vehicle: saline 103 % of control

CCOC(=O)NC1CCC1NC(=O)OCC (centres undefined)
inactive: [1] 95 % of control | [2] 98 % of control | dose: 400.0 mg/kg/injection, schedule: Q01DX009 (ip), vehicle: saline with Tween-80 91 % of control

CCCCCCCCCCC(CCCCCCCCCC)CC1CCCC1
inactive: dose: 75.0 mg/kg/injection, schedule: Q01DX001 (ip), vehicle: saline with Tween-80 100 % of control | dose: 150.0 mg/kg/injection, schedule: Q01DX001 (ip), vehicle: saline with Tween-80 103 % of control | dose: 300.0 mg/kg/injection, schedule: Q01DX001 (ip), vehicle: saline with Tween-80 97 % of control
